Measurements from US20070049564A1 (Wyeth, priority 2005, published 2007).
Values after ≈ are worked out from the molar mass of the structure shown. Read-outs that look alike come from different tables or passages of the source.

Experiments:
[1] = tested on: E. coli GC 2232; assay: MIC, broth microdilution; details: Escherichia coli
[2] = tested on: S. aureus GC 4536; assay: MIC, broth microdilution; details: Staphylococcus aureus
[3] = tested on: E. coli GC 4559; assay: MIC, broth microdilution; details: Escherichia coli
[4] = tested on: E. coli GC 2234; assay: MIC, broth microdilution; details: Escherichia coli
[5] = tested on: S. aureus GC 6466; assay: MIC, broth microdilution; details: Staphylococcus aureus
[6] = tested on: E. faecalis GC 2242; assay: MIC, broth microdilution; details: Enterococcus faecalis
[7] = tested on: Staph.; assay: Range of MIC for Staph. strains, including MRSA; details: Staphylococcus aureus, MRSA
[8] = tested on: S. aureus GC 2216; assay: MIC, broth microdilution; details: Staphylococcus aureus
[9] = tested on: E. faecium GC 4556; assay: MIC, broth microdilution; details: Enterococcus faecium
[10] = tested on: S. agalactiae GC 4564; assay: MIC, broth microdilution; details: Streptococcus agalactiae
[11] = tested on: S. pyogenes GC 4563; assay: MIC, broth microdilution; details: Streptococcus pyogenes
[12] = tested on: E. coli GC 2235; assay: MIC, broth microdilution; details: Escherichia coli
[13] = tested on: Staph. aureus Smith; assay: In vivo activity (oral, iv; ED50) against Staph. aureus Smith in mice
[14] = tested on: S. pneumoniae+ GC 4465; assay: MIC, broth microdilution; details: Streptococcus pneumoniae
[15] = tested on: E. coli GC 2236; assay: MIC, broth microdilution; details: Escherichia coli
[16] = tested on: S. typhimurium GC 2172; assay: MIC, broth microdilution; details: Salmonella enterica, TYPHIMURIUM
[17] = tested on: E. coli GC 2231; assay: MIC, broth microdilution; details: Escherichia coli
[18] = tested on: E. faecalis GC 4555; assay: MIC, broth microdilution; details: Enterococcus faecalis
[19] = tested on: E. coli; assay: Range of MIC for E. coli strains; details: Escherichia coli
[20] = tested on: S. pneumoniae* GC 4465; assay: MIC, broth microdilution; details: Streptococcus pneumoniae
[21] = read-out: MINIMAL INHIBITORY CONCENTRATION MIC, pre-incubated in Mouse Serum
[22] = read-out: MINIMAL INHIBITORY CONCENTRATION MIC, pre-incubated in Water

MIC ([1]; GC2232, read-out: MINIMAL INHIBITORY CONCENTRATION MIC, pre-incubated in Mouse Serum): 1 mg/L (≈ 1.32 µM)
MIC ([1]; GC2232, read-out: MINIMAL INHIBITORY CONCENTRATION MIC, pre-incubated in Water): > 64 mg/L
MIC ([2]; GC4536, read-out: MINIMAL INHIBITORY CONCENTRATION MIC, pre-incubated in Mouse Serum): 0.5 mg/L (≈ 0.662 µM)
MIC ([2]; GC4536, read-out: MINIMAL INHIBITORY CONCENTRATION MIC, pre-incubated in Water): 0.5 mg/L (≈ 0.662 µM)
MIC ([3]; GC4559, read-out: MINIMAL INHIBITORY CONCENTRATION MIC, pre-incubated in Mouse Serum): 2 mg/L (≈ 2.65 µM)
MIC ([3]; GC4559, read-out: MINIMAL INHIBITORY CONCENTRATION MIC, pre-incubated in Water): > 64 mg/L
MIC ([4]; GC2234, read-out: MINIMAL INHIBITORY CONCENTRATION MIC, pre-incubated in Mouse Serum): 1 mg/L (≈ 1.32 µM)
MIC ([4]; GC2234, read-out: MINIMAL INHIBITORY CONCENTRATION MIC, pre-incubated in Water): > 64 mg/L
MIC ([5]; GC6466, read-out: MINIMAL INHIBITORY CONCENTRATION MIC, pre-incubated in Mouse Serum): 0.25 mg/L (≈ 0.331 µM)
MIC ([5]; GC6466, read-out: MINIMAL INHIBITORY CONCENTRATION MIC, pre-incubated in Water): 0.25 mg/L (≈ 0.331 µM)
MIC ([6]; GC2242, read-out: MINIMAL INHIBITORY CONCENTRATION MIC, pre-incubated in Mouse Serum): 2 mg/L (≈ 2.65 µM)
MIC ([6]; GC2242, read-out: MINIMAL INHIBITORY CONCENTRATION MIC, pre-incubated in Water): 2 mg/L (≈ 2.65 µM)
MIC ([7]; read-out: Range of MIC, Staph (Mouse Serum)): 0.25 to 2 mg/L (≈ 0.331 to 2.65 µM)
MIC ([7]; read-out: Range of MIC, Staph (Water)): 0.5 to 4 mg/L (≈ 0.662 to 5.29 µM)
MIC ([7]; read-out: Range of MIC, Staph. (mouse serum)): 0.25 to 2 mg/L (≈ 0.331 to 2.65 µM)
MIC ([7]; read-out: Range of MIC, Staph. (water)): 0.5 to 4 mg/L (≈ 0.662 to 5.29 µM)
MIC ([8]; GC2216, read-out: MINIMAL INHIBITORY CONCENTRATION MIC, pre-incubated in Mouse Serum): 0.5 mg/L (≈ 0.662 µM)
MIC ([8]; GC2216, read-out: MINIMAL INHIBITORY CONCENTRATION MIC, pre-incubated in Water): 1 mg/L (≈ 1.32 µM)
MIC ([9]; GC4556, read-out: MINIMAL INHIBITORY CONCENTRATION MIC, pre-incubated in Mouse Serum): 1 mg/L (≈ 1.32 µM)
MIC ([9]; GC4556, read-out: MINIMAL INHIBITORY CONCENTRATION MIC, pre-incubated in Water): 4 mg/L (≈ 5.29 µM)
MIC ([10]; GC4564, read-out: MINIMAL INHIBITORY CONCENTRATION MIC, pre-incubated in Mouse Serum): 0.5 mg/L (≈ 0.662 µM)
MIC ([10]; GC4564, read-out: MINIMAL INHIBITORY CONCENTRATION MIC, pre-incubated in Water): 0.5 mg/L (≈ 0.662 µM)
MIC ([11]; GC4563, read-out: MINIMAL INHIBITORY CONCENTRATION MIC, pre-incubated in Mouse Serum): 0.12 mg/L (≈ 0.159 µM)
MIC ([11]; GC4563, read-out: MINIMAL INHIBITORY CONCENTRATION MIC, pre-incubated in Water): 0.25 mg/L (≈ 0.331 µM)
MIC ([12]; GC2235, read-out: MINIMAL INHIBITORY CONCENTRATION MIC, pre-incubated in Mouse Serum): 1 mg/L (≈ 1.32 µM)
MIC ([12]; GC2235, read-out: MINIMAL INHIBITORY CONCENTRATION MIC, pre-incubated in Water): 32 mg/L (≈ 42.3 µM)
MIC [14, 21]: 4 mg/L (≈ 5.29 µM)
MIC [14, 22]: 4 mg/L (≈ 5.29 µM)
MIC ([15]; GC2236, read-out: MINIMAL INHIBITORY CONCENTRATION MIC, pre-incubated in Mouse Serum): 2 mg/L (≈ 2.65 µM)
MIC ([15]; GC2236, read-out: MINIMAL INHIBITORY CONCENTRATION MIC, pre-incubated in Water): 64 mg/L (≈ 84.7 µM)
MIC [16, 21]: 8 mg/L (≈ 10.6 µM)
MIC [16, 22]: > 64 mg/L
MIC ([17]; GC2231, read-out: MINIMAL INHIBITORY CONCENTRATION MIC, pre-incubated in Mouse Serum): 2 mg/L (≈ 2.65 µM)
MIC ([17]; GC2231, read-out: MINIMAL INHIBITORY CONCENTRATION MIC, pre-incubated in Water): > 64 mg/L
MIC ([18]; GC4555, read-out: MINIMAL INHIBITORY CONCENTRATION MIC, pre-incubated in Mouse Serum): 1 mg/L (≈ 1.32 µM)
MIC ([18]; GC4555, read-out: MINIMAL INHIBITORY CONCENTRATION MIC, pre-incubated in Water): 2 mg/L (≈ 2.65 µM)
MIC ([19]; 20 h, read-out: Range of MIC, E. coli (Mouse Serum)): 1 to 2 mg/L (≈ 1.32 to 2.65 µM)
MIC ([19]; read-out: Range of MIC, E. coli (mouse serum)): 1 to 2 mg/L (≈ 1.32 to 2.65 µM)
MIC [20, 21]: 0.12 mg/L (≈ 0.159 µM)
MIC [20, 22]: 0.25 mg/L (≈ 0.331 µM)
SMILES: CCCN(CC(=O)Nc1cc(N(C)C)c2c(c1O)C(=O)C1=C(O)[C@]3(O)C(=O)C(C(N)=O)=C(O)[C@@H](N(C)C)[C@@H]3C[C@@H]1C2)C(=O)OCOC(=O)c1cccs1 [Example 25, ({[(2-{[(5aR,6aS,7S,10aS)-9-(aminocarbonyl)-4,7-bis(dimethylamino)-1,8,10a,11-tetrahydroxy-10,12-dioxo-5,5a,6,6a,7,10,10a,12-octahydrotetracen-2-yl]amino}-2-oxoethyl)(propyl)amino]carbonyl}oxy)methyl thiophene-2-carboxylate]
ED50 ([13]; Staphylococcus aureus, in Mus musculus, po, read-out: ED50 Staph Smith SOD): 15.7 mg/kg
ED50 ([13]; iv, read-out: ED50 Staph Smith SIV): 0.56 mg/kg
